Data on 51 compounds can be found in PubChem BioAssay AID1996.

≈ marks a conversion by molar mass, not a printed value.

What is called kinetic solubility is the concentration staying in solution when a stock, usually in DMSO, is diluted into the medium.

For this data set the following is noted: buffer; pH 7.4; 200.0 µM.
As to `Cc1cccc(NC(=O)CN2CCSc3ccccc32)c1`, the kinetic solubility came out at 5.2 µg/mL (≈ 17.4 µM).
On to `Cc1ccc(C)c(NCc2ccccc2CO)c1`, for which the kinetic solubility was over 36.2 µg/mL.
For `N#Cc1cc2cc3c(cc2nc1SCC(=O)N1CCOCC1)OCO3` the value was 4.9 µg/mL (≈ 13.7 µM); for `CNC(=S)N(CCCO)Cc1cc2cc3c(cc2[nH]c1=O)OCO3`, 8.2 µg/mL (≈ 23.5 µM).
For `COCC(=O)N(Cc1nc2sc(C)c(C)c2c(=O)[nH]1)C1CCCCC1` the value was 47.4 µg/mL (≈ 130 µM).
For `OC(C#CCCN1CCCCC1)(c1ccccc1)c1ccccc1` the value was 37.7 µg/mL (≈ 118 µM).
Take `Cc1ccc(C)c(NC(=S)N(CCc2ccncc2)C(C)C)c1`: the solubility (kinetic) was over 49.1 µg/mL.
Consider `O=[N+]([O-])c1ccc2nc(N3CCCC3)sc2c1`, for which the kinetic solubility was found to be 2.8 µg/mL (≈ 11.2 µM).
In turn, `O=C1/C(=C\c2ccsc2)N2CCC1CC2` gave a kinetic solubility of 21.3 µg/mL (≈ 97.1 µM).
As for `COc1ccccc1NC(=O)C(C)Sc1nccn1C` (stereo unspecified), the solubility (kinetic) is over 43.7 µg/mL.
The same measure for `CCN(C(=S)NCc1ccccc1)c1cccc2ccccc12`: 2.7 µg/mL (≈ 8.43 µM); for `COCC(=O)Nc1ccc(N2CCOCC2)c(S(=O)(=O)Nc2ccccc2OC)c1`: over 65.3 µg/mL; for `CCN(Cc1ccncc1)Cc1c(O)ccc2ccccc12`: 31.1 µg/mL (≈ 106 µM).
For the compound `Cc1cc(C)n(-c2ccnc3cc(Cl)ccc23)n1`, the solubility (kinetic) was over 38.7 µg/mL.
`O=S1(=O)CCN(Cc2cccc(C(F)(F)F)c2)CC1` registered a kinetic solubility of 41.9 µg/mL (≈ 143 µM).
With `CC(C)C(OC(=O)c1cccs1)C(=O)NCc1ccc(F)cc1` (stereo unspecified), the kinetic solubility was over 50.3 µg/mL.
For `N#Cc1ccc(OCC(=O)NCC2COc3ccccc3O2)cc1` (stereo unspecified) the value was over 48.7 µg/mL; for `COC(=O)c1ccccc1NCC(=O)c1ccc(OC)cc1`, 11.2 µg/mL (≈ 37.4 µM).
For `COc1ccc2c(c1)[C@@]13CCC=C[C@H]1[C@@H](C2)NCC3.Cl` the value was over 43.8 µg/mL; for `N#Cc1ccc(NC(=O)CCNC(=O)c2ccco2)cc1Cl`, 5 µg/mL (≈ 15.7 µM).
As to `CC1(C)CN(C(Cc2ccccc2)C(N)=O)C1=O` (stereo unspecified), the kinetic solubility is over 36.9 µg/mL.
The same measure for `CCCCOc1ccc(Cn2c(=O)oc3ccccc32)cc1`: under 0.6 µg/mL.
For `CCCCN(CC)C(=O)c1cc2cc3ccc(Cl)cc3nc2o1` the value was 3.3 µg/mL (≈ 9.98 µM); for `COc1cc(OC)cc(C(=O)N[C@H](C(=O)NC2=NCCS2)C(C)C)c1`, over 54.8 µg/mL.
Take `CC1CCc2c(sc(NC(=O)c3cccn3C)c2C(N)=O)C1` (stereo unspecified): the solubility (kinetic) was 2.9 µg/mL (≈ 9.14 µM).
Regarding `Cc1ccc(-n2c(O)c(C=NCC3CCCO3)c(=O)[nH]c2=O)c(C)c1` (stereo unspecified), the solubility (kinetic) was over 51.5 µg/mL.
`Cc1cccc(NC(=O)Nc2ccccn2)c1C` had a kinetic solubility of 1.2 µg/mL (≈ 4.97 µM).
The same measure for `O/N=C1\CCSc2ccc(F)cc21`: 23.4 µg/mL (≈ 119 µM).
For `O=C1NC2(CCCCCC2)C(=O)N1Cc1ccc(Br)cc1`, the kinetic solubility was 5.2 µg/mL (≈ 14.8 µM).
For the compound `COc1ccc(CNC(=O)C2CCN(S(C)(=O)=O)CC2)c(OC)c1`, the kinetic solubility was over 53.5 µg/mL.
For `O=C(NCCN1CCCCC1)Nc1ccc(F)cc1` the value was 37.4 µg/mL (≈ 141 µM); for `CCCOc1ccc(C(=O)Nc2ccc3c(c2)OCO3)cc1`, 1 µg/mL (≈ 3.34 µM).
The same measure for `CC(C)=CC(=O)OCc1cc([N+](=O)[O-])cc2c1OCOC2`: 3.3 µg/mL (≈ 11.3 µM); for `O=C(NCC(=O)N1CCN(c2ccccc2)CC1)c1ccccc1`: over 48.5 µg/mL.
Compound `CC(C)NC(=O)COCc1cc(-c2ccc3c(c2)OCO3)on1` registered a solubility (kinetic) of over 47.7 µg/mL.
The same measure for `COc1ccc(Cl)cc1C(=O)NC(=S)Nc1nc(C)cc(C)n1`: 0.4 µg/mL (≈ 1.14 µM); for `O=C(NCCCN1CCCC1=O)c1ccc(NS(=O)(=O)c2ccccc2)cc1`: 58.8 µg/mL (≈ 146 µM); for `Cc1ccc(C(=O)COC(=O)C(C)N2C(=O)C3C4C=CC(C4)C3C2=O)cc1C` (stereo unspecified): 55.5 µg/mL (≈ 146 µM).
The same measure for `O=[N+]([O-])C1=CC=C2C(=NC3(CCCCC3)N2O)C1=NCCO`: over 45.9 µg/mL; for `COCCCNC1=C(Cl)C(=O)c2ccccc2C1=O`: 35.5 µg/mL (≈ 127 µM); for `CC(=O)Nc1cccc(OCCCNC(=O)c2cccc3ccccc23)c1`: 46.8 µg/mL (≈ 129 µM).
For `O=C(Cn1c(=O)n(CC2CS2)c2ccccc21)N1CCCCC1` (stereo unspecified), the solubility (kinetic) was over 49.7 µg/mL.
For `COC(=O)c1cn(Cc2ccc(C(F)(F)F)cc2)cc(F)c1=O` the value was over 49.4 µg/mL.
The compound `COc1ccc(/C=C2\SC(N)=NC2=O)cc1` showed a kinetic solubility of 3.9 µg/mL (≈ 16.6 µM).
Regarding `CSc1ncccc1C(=O)NCC1CCCCC1`, the kinetic solubility amounted to 38.4 µg/mL (≈ 145 µM).
With `O=C(Nc1ccc(Cl)cc1)N1CCN(Cc2ccc3c(c2)OCO3)CC1`, the solubility (kinetic) came out at 5.7 µg/mL (≈ 15.2 µM).
Compound `Cc1ccnc(SC2CC(=O)N(c3ccc([N+](=O)[O-])cc3)C2=O)n1` (stereo unspecified) showed a solubility (kinetic) of over 51.7 µg/mL.
`N#CCc1ccc(OC(=O)c2ccncc2)cc1` returned a kinetic solubility of over 35.7 µg/mL.
The same measure for `COc1ccc(C(=O)n2cc(C(C)=O)c3ccccc32)cc1`: 1.3 µg/mL (≈ 4.43 µM); for `O=C(Nc1ccc2c(c1)OCCO2)C(=O)c1c[nH]c2ccccc12`: under 0.3 µg/mL; for `Cc1ccc(OCC(=O)Nc2ccc(Cl)cc2)c([N+](=O)[O-])n1`: 8.7 µg/mL (≈ 27 µM).
